# From US9115165B2, “Tetracyclic anthraquinone antibiotic derivatives with high activity, process for preparing the same and use thereof” (Tianjin Hemay Bio-Tech Co., Ltd., priority 2008, dated 2015)
# Where two headings read alike, the source gives them in different places.
# Experiments:
# A549 cell = experiment: Cytotoxicity assay (MTS/MTT), A549 cells; type: cell-based, human; conditions: read-out: Half-Inhibitory Concentration of Cells Growth (EC50), A549 cell
# Method: A549: human lung cancer cell strains;
# (§1) Cells were seeded into RPMI 1640 cell culture solution containing 10% fetal bovine serum (100 ku/L of penicillin and 100 ku/L of streptomycin were supplemented). The culture dish was placed in a cell incubator containing 5% CO2 at 37° C. The culture solution was changed once every 2-3 days. Cells were digested with 0.25% trypsin liquid, passaged and collected.
# (§2) Cells during the logarithmic growth phase were formulated into a cell suspension having a desired concentration with RPMI 1640 cell culture solution containing 10% fetal bovine serum. The cell suspension was added onto 96 well cell culture plate at 3000-5000 per well (100 μl). After incubating for 24 hours, 100 μl of the test substances with different concentration was added per well. There were four parallel wells for each concentration in this plate. After incubating for 72 to 120 hours, the supernatant was discarded. To each well was added 100 μl of new formulated 0.5 mg/ml MTT serum-free culture solution. After incubating for 4 hours at 37° C., the supernatant was discarded. Formazane was dissolved with 200 μl DMSO. After slightly oscillating for 15 min, absorbance values (OD value) at the detective wavelength of 570 nm and the reference wavelength of 450 nm were determined with enzyme labeling instrument.
# (§3) Data was represented by x±s. The inhibition rate=(OD value of the control group−OD value of the administration group)/OD value of the control group×100%. The maximum inhibition rate Imax and the half effective concentration (IC50) represent the anticancer effects. Figures were drawn with MicroCal Origin software. The inhibition curve of the test substance to the growth of tumor cells was fitted by Four Parameters Logistic Program of the software. The half effective concentration (IC50: μg/ml) for inhibiting the proliferation of tumor cells was calculated.
# (§4) The exposure concentrations of the test substance were 0.001 μg/ml, 0.003 μg/ml, 0.009 μg/ml, 0.027 μg/ml, 0.082 μg/ml, 0.247 μg/ml, 0.741 μg/ml, 2.222 μg/ml, 6.667 μg/ml and 20 μg/ml. The exposure concentrations of doxorubicin (positive drug) were 1.25 μg/ml, 5 μg/ml, 20 μg/ml. In a 96-well plate, 3000-5000 cells were inoculated in each well and there were four parallel wells for each concentration. Table 1 lists the growth inhibition rate of the compounds against Lovo cells at concentration of 1 μM. Table 3 lists the inhibition rate of the compounds against the hyperplasia of MCF-7 human breast cancer cells at various concentrations.
# [1] = system: MCF-7 human breast cancer cells; experiment: Cytotoxicity assay (MTS/MTT), MCF-7 cells; type: cell-based; conditions: for EC50: read-out: Half-Inhibitory Concentration of Cells Growth (EC50), MCF-7 cell
# Method: MCF-7: human breast cancer cell strains;
# as §1, §2, §3, §4
# HEPG-2 = experiment: Cytotoxicity assay (MTS/MTT), HEPG-2 cells; type: cell-based, human; conditions: read-out: Half-Inhibitory Concentration of Cells Growth (EC50), HEPG-2
# Method: HEPG-2: human liver cancer cell strains;
# as §1, §2, §3, §4
# Kunming white mice [2] = conditions: reference value given in the conclusion; cited from earlier work
# HCT-8 cell = experiment: Cytotoxicity assay (MTS/MTT), HCT-8 cells; type: cell-based, human; conditions: read-out: Half-Inhibitory Concentration of Cells Growth (EC50), HCT-8 cell
# Method: HCT-8: human colon cancer cell strains;
# as §1, §2, §3, §4
# Lovo cells = experiment: Cytotoxicity assay (MTS/MTT), growth inhibition of Lovo cells; type: cell-based, human; conditions: concentration of 1 μM
# Method: LOVO: human colon cancer cell strains;
# as §1, §2, §3, §4
# Kunming white mice [3] = experiment: In vivo MTD test in mice; conditions: for Abnormality on the body surface / Change of body weight / Mortality rate: tail vein injection
# Method: Experiment purpose: preliminary investigation on in vivo toxicity of the compound in Example 1 in mice
# Experiment animal: Kunming white mice 20±2 g, purchased from the animal housing in Institute of Radiation Medicine, Chinese Academy of Medical Sciences. Animal license No.: SCXK(JIN)2005-0001.
# Preparation of drug solution: After the drug was vortexed to dissolve with 0.5% (V/V) of DMSO, 5% (V/V) of RH40 (ethoxylated hydrogenated castor oil) was added. After mixing with vortex, the volume was determined with normal saline.
# (1) Single administration: Nine healthy Kunming male white mice, of which the body weights are 20±2 g, were divided into three groups: 2 mice belong to the control group; 6 mice belong to 20 mg/kg group; 1 mouse belongs to 30 mg/kg group. 20 mg/kg and 30 mg/kg of the compound in Example 1 were administrated once via tail vein injection to the mice in the administration group. The same volume of a solvent was administrated as control to the mice in the control group. After administration, conditions such as action, reflex, locomotor activity and the like of the mice were observed within one hour. Subsequently, the body weights of the mice were recorded every day. Having observed for 14 days after drug withdrawal, the mice were anatomized to observe whether their main organs have an obvious abnormality.
# (2) Multiple administrations: Twelve healthy Kunming white mice including six male mice and six female mice, of which the body weights are 20±2 g, were divided into two groups: […]. 10 mg/kg of the test drug was administrated once every three days via tail vein injection to the mice in the administration group. The same volume of a solvent was administrated as the control to the mice in the control group. The mice in each group were administrated five times. After each administration, conditions such as action, reflex, locomotor activity and the like of the mice were observed within one hour. The body weights of mice were recorded every day. Having been fed normally for one week after drug withdrawal, the mice were anatomized to observe whether their main organs have an obvious abnormality.
# transplanted tumor = transplanted tumor in mice; cited from earlier work
# [4] = folds of doxorubicin; cited from earlier work
# [5] = MCF-7, compound concentration 0.001 μg/ml
# [6] = MCF-7, compound concentration 0.003 μg/ml
# [7] = MCF-7, compound concentration 0.009 μg/ml
# [8] = MCF-7, compound concentration 0.027 μg/ml
# [9] = MCF-7, compound concentration 0.082 μg/ml
# [10] = MCF-7, compound concentration 0.247 μg/ml
# [11] = MCF-7, compound concentration 0.741 μg/ml
# [12] = MCF-7, compound concentration 2.222 μg/ml
# [13] = MCF-7, compound concentration 6.667 μg/ml
# [14] = MCF-7, compound concentration 20 μg/ml
# [15] = multiple administrations, 10 mg/kg once every three days, five times
# [16] = single administration, 20 mg/kg and 30 mg/kg
molecule,measurement,setting,value
"COc1cccc2c1C(=O)c1c(O)c3c(c(O)c1C2=O)C[C@@](O)(C(=O)CO)C[C@@H]3O[C@H]1C[C@H](N)[C@H](O)[C@H](C)O1 [Doxorubicin, doxorubicin, reference compound]",EC50,"A549 cell; Homo sapiens, A549",660 nM
same,EC50,"[1]; Homo sapiens, MCF7",1200 nM
same,EC50,"HEPG-2; Homo sapiens, HepG2",2000 nM
same,Maximal tolerance dose (MTD),Kunming white mice [2],8 to 12 mg/kg
same,EC50,"HCT-8 cell; Homo sapiens, HCT-8",900 nM
same,inhibition at 1 µM,"Lovo cells; Homo sapiens, read-out: Growth Inhibition Rate (%)",50.4%
3′-pyrrolyl-5-iminodaunomycin [Example 2],Growth Inhibition Rate (%),Lovo cells,74.0%
"COc1cccc2c1C(=O)c1c(O)c3c(c(O)c1C2=O)C[C@@](O)(C(=O)CO)C[C@@H]3O[C@H]1C[C@H](n2cccc2)[C@H](O)[C@H](C)O1 [Example 1, 3′-pyrrolyldoxorubicin]",EC50,A549 cell; A549 cell,61 nM
same,A570 nm-OD Values,[1]; [5],1.629 ± 0.257
same,Inhibition Rate (%),[1]; [5],4.27%
same,A570 nm-OD Values,[1]; [6],1.744 ± 0.176
same,Inhibition Rate (%),[1]; [6],−2.49%
same,A570 nm-OD Values,[1]; [7],1.443 ± 0.079
same,Inhibition Rate (%),[1]; [7],15.17%
same,A570 nm-OD Values,[1]; [8],1.238 ± 0.072
same,Inhibition Rate (%),[1]; [8],27.22%
same,A570 nm-OD Values,[1]; [9],0.883 ± 0.041
same,Inhibition Rate (%),[1]; [9],48.09%
same,A570 nm-OD Values,[1]; [10],0.703 ± 0.058
same,Inhibition Rate (%),[1]; [10],58.68%
same,A570 nm-OD Values,[1]; [11],0.461 ± 0.026
same,Inhibition Rate (%),[1]; [11],72.89%
same,A570 nm-OD Values,[1]; [12],0.302 ± 0.030
same,Inhibition Rate (%),[1]; [12],82.26%
same,A570 nm-OD Values,[1]; [13],0.320 ± 0.030
same,Inhibition Rate (%),[1]; [13],81.18%
same,A570 nm-OD Values,[1]; [14],0.289 ± 0.019
same,Inhibition Rate (%),[1]; [14],83.03%
same,EC50,[1]; MCF-7 cell,210 nM
same,Imax (maximum inhibition rate),[1]; MCF-7 human breast cancer cells,Imax = 83.03%
same,IC50,"[1]; MCF-7 human breast cancer cells, fitted inhibition curve",0.06023 ± 0.01528 µg/mL
same,Maximal tolerance dose (MTD) relative to doxorubicin,"Kunming white mice [3]; mice, compared with doxorubicin MTD 8-12 mg/kg",at least more than five folds higher than that of doxorubicin
same,Abnormality on the body surface,Kunming white mice [3]; [15],no obvious abnormality on the body surface was observed
same,Change of body weight,Kunming white mice [3]; [15],The body weight of each mouse increased slowly after administration
same,Mortality rate,Kunming white mice [3]; [15],Death was not found
same,Abnormality on the body surface,Kunming white mice [3]; [16],no obvious abnormality on the body surface was observed
same,Change of body weight,Kunming white mice [3]; [16],The body weight of each mouse increased after administration
same,Mortality rate,"Kunming white mice [3]; single administration, 20 mg/kg and 30 mg/kg, observed 14 days",Death was not found
same,EC50,HEPG-2; HEPG-2,810 nM
same,EC50,HCT-8 cell; HCT-8 cell,490 nM
same,Growth Inhibition Rate (%),Lovo cells; 1 µM,80.62%
"COc1cccc2c1C(=O)c1c(O)c3c(c(O)c1C2=O)C[C@@](O)(C(=O)CO)C[C@@H]3O[C@H]1C[C@H](n2cccc2)[C@H](O)[C@H](C)O1 [Example 5, 3′-pyrrolyldoxorubicin]",Growth Inhibition Rate (%),Lovo cells,67.25%
"COc1cccc2c1C(=O)c1c(O)c3c(c(O)c1C2=O)C[C@@](O)(C(=O)CO)C[C@@H]3O[C@H]1C[C@H](N2C=CCC2)[C@H](O)[C@H](C)O1 [AN-201, 2-pyrrolinyl-doxorubicin]",Anticancer activity at the maximal tolerance dose,transplanted tumor,the anticancer activity was not observed at the maximal tolerance dose
same,Activity in the cellular level relative to doxorubicin,[4],300-1000 folds
"COc1cccc2c1C(=O)c1c(O)c3c(c(O)c1C2=O)CC(O)(C(=O)COC(=O)CCC(=O)O)CC3OC1CC(n2cccc2)C(O)C(C)O1 (stereo not shown) [Example 13, 3′-pyrrolyldoxorubicin-14-oxo-hydrogen succinate]",EC50,A549 cell; A549 cell,2360 nM
same,EC50,[1]; MCF-7 cell,930 nM
same,EC50,HEPG-2; HEPG-2,150 nM
same,EC50,HCT-8 cell; HCT-8 cell,1870 nM
same,Growth Inhibition Rate (%),Lovo cells,76.05%
3′-pyrrolyl-4′-(pyran-2-yl)doxorubicin [Example 6],Growth Inhibition Rate (%),Lovo cells,90.94%
"COc1cccc2c1C(=O)c1c(O)c3c(c(O)c1C2=O)CC(O)(C(=O)CO)CC3OC1CC(N2C(=O)CCC2=O)C(O)C(C)O1 (stereo not shown) [Example 7, 3′-succinimidodoxorubicin]",Growth Inhibition Rate (%),Lovo cells,83.31%
3′-pyrrolyl-esorubicin [Example 4],Growth Inhibition Rate (%),Lovo cells,40.71%
"COc1cccc2c1C(=O)c1c(O)c3c(c(O)c1C2=O)CC(O)(C(=O)COC(=O)C(C)N)CC3OC1CC(n2cccc2)C(O)C(C)O1.Cl (stereo not shown) [Example 38, 3′-pyrrolyldoxorubicin-14-oxo-alaninate hydrochloride]",EC50,A549 cell; A549 cell,230 nM
same,EC50,[1]; MCF-7 cell,870 nM
same,EC50,HEPG-2; HEPG-2,1060 nM
same,EC50,HCT-8 cell; HCT-8 cell,590 nM
same,Growth Inhibition Rate (%),Lovo cells,78.44%
3′-pyrrolyl-idarubicin [Example 3],Growth Inhibition Rate (%),Lovo cells,88.9%
